Data as given in patent US10667515B2, “(S)-5-ethynyl-anabasine, derivatives thereof, and related compositions and methods of making and using” (priority 2016, dated 2020).
“Also recorded” adds a separate entry of the source. Structures can show the parent of a compound that is named as a salt. Where two headings read alike, the source gives them in different places.

What was measured:
Asu-ACR-16 [1] = target: T1, Asu-ACR-16 (Ascaris suum (Pig roundworm) (Ascaris lumbricoides), UniProt F1KYJ9); test: cell-based; format: cell-based; conditions: for Emax: read-out: maximum response (Imax); for maximum response (Imax): normalized to peak current of 100 μM ACh
T1 sequence (F1KYJ9 1-504): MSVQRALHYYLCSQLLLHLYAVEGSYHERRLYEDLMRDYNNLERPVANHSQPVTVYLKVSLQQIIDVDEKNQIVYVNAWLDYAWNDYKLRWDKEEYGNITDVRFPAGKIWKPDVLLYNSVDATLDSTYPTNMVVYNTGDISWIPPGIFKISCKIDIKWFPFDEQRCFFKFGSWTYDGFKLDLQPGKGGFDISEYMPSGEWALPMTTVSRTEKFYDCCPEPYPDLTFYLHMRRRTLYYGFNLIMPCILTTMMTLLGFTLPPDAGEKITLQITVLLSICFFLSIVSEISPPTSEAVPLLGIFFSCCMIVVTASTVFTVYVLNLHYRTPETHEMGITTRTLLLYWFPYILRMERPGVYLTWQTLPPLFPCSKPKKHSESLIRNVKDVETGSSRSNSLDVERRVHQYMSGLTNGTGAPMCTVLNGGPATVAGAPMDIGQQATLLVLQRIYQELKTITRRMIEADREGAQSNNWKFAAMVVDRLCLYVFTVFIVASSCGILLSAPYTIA
Description: Full-length Asu-acr-16 cRNA and ancillary gene Asu-ric-3 cRNA (UniProtKB Accession No. F1L1D9) were prepared as previously described (Zheng et al. (2016), supra). A cRNA mixture of 25 ng Asu-acr-16 and 5 ng Asu-ric-3 cRNA in 50 nL RNAse-free water was injected into de-folliculated Xenopus laevis oocytes (Ecocyte Bioscience, Austin, Tex., USA). The injected oocytes were incubated in an incubation solution (100 mM NaCl, 2 mM KCl, 1.8 mM CaCl2.2H2O, 1 mM MgCl2.6H20, 5 mM HEPES, 2.5 mM Na-pyruvate, 100 U/mL penicillin, and 100 μg/mL streptomycin, pH 7.5) at 19° C. for 4-8 days, after which 100 μM BAPTA-AM was added three hours before recording.
Two-electrode voltage clamp electrophysiology was used to determine agonist concentration-current-response plots to estimate the potencies (EC50s) of the agonists. The oocytes were kept in a recording solution (100 mM NaCl, 2.5 mM KCl, 1 mM CaCl2.2H2O, and 5 mM HEPES, pH 7.3) and clamped to −60 mV during recording.
Inward current signals in the oocytes were induced by the addition of chemicals that acted as agonists opening the nicotinic ion-channel receptors. […] An Axoclamp 2B amplifier (Molecular Devices, Sunnyvale, Calif.) was used to record the currents that were acquired with Clampex 9.2 software (Molecular Devices) and analyzed using GraphPad Prism 5.0 (Graphpad Software, Inc., La Jolla, Calif.).
Recording solution was then used to wash out the drug from the oocyte for 3 min prior to application of the next chemical perfusion.
Nicotine derivatives that elicited inward currents at 100 μM were classified as agonists. Increasing concentrations of each nicotine derivative were applied for 10 sec with 3-min wash intervals to determine the dose-response relationship of each agonist. […] Peak responses were recorded and normalized. […] The EC50 and Imax of each agonist were compared using the unpaired student's t-test. P<0.05 was used to evaluate the statistical difference.

Asu-ACR-16 [2] = target: T1, Asu-ACR-16; test: Two-electrode voltage clamp inhibition of the ACh response of Asu-ACR-16 expressed in Xenopus laevis oocytes; format: cell-based
[3] = agonist dose-response, mean±S.E.M., N=5
[4] = agonist, currents normalized to 100 μM ACh, oocytes clamped to −60 mV, mean±S.E.M., N=5
[5] = inward currents at 100 μM classify as agonist
[6] = inhibition of ACh response, N=5

Structure (SMILES)	Hill slope (nH) (Asu-ACR-16 [1]; [3])	Emax (Asu-ACR-16 [1])	maximum response (Imax) (Asu-ACR-16 [1]; mean±S.E.M., N=5)	also measured
CN1CCCC1c1cccnc1.O=C(O)C(O)C(O)C(=O)O (single isomer, unassigned; (-)) [(S)-nicotine, (−)-nicotine hydrogen tartrate salt]	–	–	–	Hill slope (nH) (Asu-ACR-16 [1]): 3.39 ± 0.36; agonist activity (in words) (Asu-ACR-16 [1]): potent agonist
Cc1cncc(C2CCCN2C)c1 (stereo not shown) [5-methyl-nicotine, 5-methylnicotine]	2.09 ± 0.14	76 ± 1.22%	–	EC50 (Asu-ACR-16 [1]; [4]): 0.99 ± 0.17 µM
NC(=O)c1ccc(N)nc1 [6-AN, 6-aminonicotinamide]	10.10 ± 0.15	6.29 ± 0.62%	–	agonist activity (in words) (Asu-ACR-16 [1]; [5]): little agonist activity; IC50 (Asu-ACR-16 [2]): 2 ± 0.41 µM; inhibition of ACh response (in words) (Asu-ACR-16 [2]; 100 μM derivative co-applied with 100 μM ACh): most potent inhibitor; mode of antagonism (in words) (Asu-ACR-16 [2]; ACh dose-response in presence of 1 μM 6-AN, concentration- and voltage-dependent inhibition): non-competitive antagonist; Imax (Asu-ACR-16 [2]; [6]): 94.88±1.49%; nH (Asu-ACR-16 [2]; [6]): 1.02±0.05
Cc1ccc(C2CCCN2C)cn1 (stereo not shown) [6-methyl-nicotine, 6-methylnicotine]	3.25 ± 0.25	69.8 ± 1.56%	–	–
CN1CCC[C@H]1c1ccc[n+](C)c1.[I-] [(S)-1-methyl-nicotinium, (S)-1-methylnicotinium iodide]	–	–	–	agonist activity (in words) (Asu-ACR-16 [1]; [5]): did not act as agonists
C[N+]1(C)CCC[C@H]1c1cccnc1.[I-] [(S)-1′-methyl-nicotinium, (S)-1′-methylnicotinium iodide]	3.52 ± 0.26	–	93.38 ± 5.25%	–
Brc1cncc([C@@H]2CCCCN2)c1 [(S)-5-bromo-anabasine, (S)-5-bromoanabasine]	4.19 ± 1.58	–	80.69 ± 2.87%	–
CN1CCC[C@H]1c1cncc(Br)c1 [(S)-5-bromo-nicotine, (S)-5-bromonicotine]	2.46 ± 0.21	69.7 ± 3.28%	–	EC50 (Asu-ACR-16 [1]; [4]): 2.04 ± 0.12 µM
C#Cc1cncc([C@@H]2CCCCN2)c1 [(S)-5-ethynyl-anabasine]	1.81 ± 0.24	–	79.33 ± 3.75%	EC50 lower (more potent) than (S)-nicotine (Asu-ACR-16 [1]; ratio of EC50 values): 44 times
C#Cc1cncc([C@@H]2CCCN2C)c1 [(S)-SIB 1508Y, SIB 1508Y maleate]	0.94 ± 0.04	–	100.1 ± 4.36%	EC50 (Asu-ACR-16 [1]; [4]): 0.37 ± 0.1 µM
c1cncc([C@@H]2CCCCN2)c1 [(S)-anabasine]	2.26 ± 0.20	–	84.82 ± 4.20%	–
CN1C(=O)CC[C@H]1c1cccnc1 [(S)-cotinine, (−)-cotinine]	–	–	–	agonist activity (in words) (Asu-ACR-16 [1]; [5]): did not act as agonists
CN1CCC[C@H]1c1cccnc1 [(S)-nicotine, (−)-nicotine hydrogen tartrate salt]	–	82.4 ± 2.52%	–	EC50 (Asu-ACR-16 [1]): 6.21 ± 0.56 µM
CN1CCC[C@H]1c1cncc(C=O)c1 [(S)-nicotine-5-carboxaldehyde]	8.61 ± 4.04	–	62.20 ± 6.80%	EC50 (Asu-ACR-16 [1]; [4]): 11.5 ± 0.63 µM
CC(=O)OCC[N+](C)(C)C.[Cl-] [ACh, acetylcholine chloride]	2.93 ± 0.13	–	–	–
CN1CCCCC1c1cccnc1 (stereo not shown) [N-methyl-anabasine, N-methyl anabasine]	–	–	–	agonist activity (in words) (Asu-ACR-16 [1]; [5]): inactive; also recorded: did not act as agonists
CCN1CCCC1c1cccnc1 (stereo not shown) [homonicotine]	6.78 ± 2.50	–	22.01 ± 1.39%	–
c1cncc([C@@H]2CCCN2)c1 [nornicotine, (+)-nornicotine]	3.25 ± 0.49	62.6 ± 3.42%	–	–
